From patent publication US9708308B2, “Factor IXa inhibitors” (Merck Sharp & Dohme Corp., priority 2012, dated 2017)

Biological target: Factor IXa (Homo sapiens, UniProt P00740)
Assay: Determination of inhibitory activity against Factor IXa (cleavage of fluorescent peptide substrate)
Format: biochemical
Conditions: cleavage of fluorescent peptide CH3SO2-D-CHG-Gly-Arg-AFC, release of AFC; read-out: FIXa IC50
Description: • (R)—N-(3-aminobenzo[d]isoxazol-6-yl)-2-hydroxy-2-((R)-4-(1-(6-methoxypyridazin-4-yl)-1H-pyrazol-3-yl)-6,6-dimethyl-3-oxomorpholin-2-yl)acetamide. Determination of Inhibitory Activity Against Factor IXa
Formation of a clot to stem bleeding at a site of blood vessel injury involves the coordinated activity of a group of plasma proteins that initiate and propagate fibrin formation and subsequently protect fibrin from premature degradation. Factor IX is a key component of the plasma system that forms a fibrin clot at a site of vascular injury. The activity of Factor IXa is measured by monitoring the cleavage of the fluorescent peptide, CH3SO2-D-CHG-Gly-Arg-AFC.AcOH (“CHG” is cyclohexyl-glycine and “AFC” is trifluoro aminomethyl coumarin). Factor IXa cleaves the amide bond between Arg and AFC, thereby releasing the AFC fluorophore. The free AFC can be detected with a fluorescence detector at an excitation wavelength of 405 nm and emission wavelength of 510 nm.

Sequence of Factor IXa (P00740 227-461 limits assumed): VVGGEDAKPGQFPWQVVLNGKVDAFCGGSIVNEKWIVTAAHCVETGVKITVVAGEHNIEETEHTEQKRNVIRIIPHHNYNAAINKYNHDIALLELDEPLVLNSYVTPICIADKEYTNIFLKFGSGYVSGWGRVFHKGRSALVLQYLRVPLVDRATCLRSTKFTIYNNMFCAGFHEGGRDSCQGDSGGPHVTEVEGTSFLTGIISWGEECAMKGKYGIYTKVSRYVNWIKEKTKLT
Sequence of Factor IXa (P00740 47-191 partner limits assumed): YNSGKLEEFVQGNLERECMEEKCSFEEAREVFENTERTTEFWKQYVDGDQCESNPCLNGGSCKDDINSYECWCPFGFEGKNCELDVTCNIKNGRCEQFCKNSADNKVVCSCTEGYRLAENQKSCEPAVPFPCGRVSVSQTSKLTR

| SMILES | IC50 [µM] |
| --- | --- |
| COc1cc(-n2cc(F)c(N3CCO[C@H]([C@@](C)(O)C(=O)Nc4ccc5c(N)noc5c4)C3=O)n2)cnn1 [Example 49, (R)—N-(3-aminobenzo[d]isoxazol-6-yl)-2-((R)-4-(4-fluoro-1-(6-methoxypyridazin-4-yl)-1H-pyrazol-3-yl)-3-oxomorpholin-2-yl)-2-hydroxypropanamide] | 0.00648 |
| C[C@](O)(C(=O)Nc1ccc2c(N)noc2c1)[C@H]1OCCN(c2nn(-c3cnnc(C(F)(F)F)c3)cc2F)C1=O [Example 50, (R)—N-(3-aminobenzo[d]isoxazol-6-yl)-2-((R)-4-(4-fluoro-1-(6-(trifluoromethyl)pyridazin-4-yl)-1H-pyrazol-3-yl)-3-oxomorpholin-2-yl)-2-Hydroxypropanamide] | 0.00189 |
| Cc1nccc(-n2ccc(N3CCO[C@H]([C@@](C)(O)C(=O)Nc4ccc5c(N)noc5c4)C3=O)n2)n1 [Example 51, (R)—N-(3-aminobenzo[d]isoxazol-6-yl)-2-hydroxy-2-((R)-4-(1-(2-methylpyrimidin-4-yl)-1H-pyrazol-3-yl)-3-oxomorpholin-2-yl)propanamide] | 0.17 |
| CN(C)c1nccc(-n2ccc(N3CCO[C@H]([C@@](C)(O)C(=O)Nc4ccc5c(N)noc5c4)C3=O)n2)n1 [Example 52, (R)—N-(3-aminobenzo[d]isoxazol-6-yl)-2-((R)-4-(1-(2-(dimethylamino)pyrimidin-4-yl)-1H-pyrazol-3-yl)-3-oxomorpholin-2-yl)-2-Hydroxypropanamide] | 0.102 |
| C[C@](O)(C(=O)Nc1ccc2c(N)noc2c1)[C@H]1OCCN(c2ccn(-c3ccnc(C(F)(F)F)n3)n2)C1=O [Example 53, (R)—N-(3-aminobenzo[d]isoxazol-6-yl)-2-hydroxy-2-((R)-3-oxo-4-(1-(2-(trifluoromethyl)pyrimidin-4-yl)-1H-pyrazol-3-yl)morpholin-2-yl)propanamide] | 0.0767 |
| C[C@](O)(C(=O)Nc1ccc2c(N)noc2c1)[C@H]1OCCN(c2ccn(-c3ccnc(C#N)n3)n2)C1=O [Example 54, (R)—N-(3-aminobenzo[d]isoxazol-6-yl)-2-((R)-4-(1-(2-cyanopyrimidin-4-yl)-1H-pyrazol-3-yl)-3-oxomorpholin-2-yl)-2-hydroxypropanamide] | 0.145 |
| COc1nccc(-n2ccc(N3CCO[C@H]([C@@](C)(O)C(=O)Nc4ccc5c(N)noc5c4)C3=O)n2)n1 [Example 55, (R)—N-(3-aminobenzo[d]isoxazol-6-yl)-2-hydroxy-2-((R)-4-(1-(2-methoxypyrimidin-4-yl)-1H-pyrazol-3-yl)-3-oxomorpholin-2-yl)propanamide] | 0.0248 |
| COc1cc(-n2ccc(N3CCO[C@H]([C@@](C)(O)C(=O)Nc4ccc5c(N)noc5c4)C3=O)n2)ncn1 [Example 56, (R)—N-(3-aminobenzo[d]isoxazol-6-yl)-2-hydroxy-2-((R)-4-(1-(6-methoxypyrimidin-4-yl)-1H-pyrazol-3-yl)-3-oxomorpholin-2-yl)propanamide] | 0.0845 |
| C[C@](O)(C(=O)Nc1ccc2c(N)noc2c1)[C@H]1OCCN(c2nn(-c3ccnc(C(F)(F)F)n3)cc2F)C1=O [Example 57, (R)—N-(3-aminobenzo[d]isoxazol-6-yl)-2-((R)-4-(4-fluoro-1-(2-(trifluoromethyl)pyrimidin-4-yl)-1H-pyrazol-3-yl)-3-oxomorpholin-2-yl)-2-hydroxypropanamide] | 0.0637 |
| COc1nccc(-n2cc(F)c(N3CCO[C@H]([C@@](C)(O)C(=O)Nc4ccc5c(N)noc5c4)C3=O)n2)n1 [Example 58, (R)—N-(3-aminobenzo[d]isoxazol-6-yl)-2-((R)-4-(4-fluoro-1-(2-methoxypyrimidin-4-yl)-1H-pyrazol-3-yl)-3-oxomorpholin-2-yl)-2-hydroxypropanamide] | 0.032 |
| Cc1cc(N2CCO[C@H]([C@@](C)(O)C(=O)Nc3ccc4c(N)noc4c3)C2=O)nn1-c1ccnc(C(F)(F)F)n1 [Example 59, (R)—N-(3-aminobenzo[d]isoxazol-6-yl)-2-hydroxy-2-((R)-4-(5-methyl-1-(2-(trifluoromethyl)pyrimidin-4-yl)-1H-pyrazol-3-yl)-3-oxomorpholin-2-yl)propanamide] | 0.0728 |
